This is an account of results in the OPERA property sets (Mansouri et al. 2018).

Settings in one series: not given
In turn, `CCCCCCCCCc1ccccc1` showed a boiling point of 280 °C, a log10 vapour pressure (mmHg) of -2.24 and a melting point of -24 °C.

Compound `CCN(CC)C(=O)C(Cl)(Cl)Cl` returned a melting point of 27 °C.

For the compound `C#CC(C)=CC`, the boiling point was found to be 66.5 °C.

On to `Brc1ccc(-c2ccc(Br)cc2)cc1`, for which the boiling point is 358 °C, the melting point came to 164 °C and the ready biodegradability result is reported as “not readily biodegradable”.

Regarding `COc1cc(O)c(C(=O)c2ccccc2)cc1S(=O)(=O)O`, the melting point came to 145 °C.

The compound `N[C@@H]1CONC1=O` gave a melting point of 140 °C.

On to `OCC(F)(F)F`, for which the boiling point came out at 74 °C, the log10 Henry constant (atm·m³/mol) is -4.76, the log10 vapour pressure (mmHg) was 1.85 and the melting point is -43.5 °C.

For `CCOP(=S)(OCC)OCCSCC`, the log10 Koc (L/kg) turned out to be 2.59.

`CC(C)C(=O)C(C)C`: the boiling point was 125 °C, the log10 vapour pressure (mmHg) stood at 1.13 and the melting point is -69 °C.

The compound `O=C(O)[C@@H]1CCc2ccccc2C1` registered a melting point of 97.7 °C.

As to `CCCCCCn1c(=O)c2c(ncn2C)n(C)c1=O`, the melting point was determined as 82.5 °C.

As to `Cc1ccnc(C)c1C`, the boiling point stood at 192 °C.

For `CC1=NN(c2ccccc2)C(=O)C1`, the melting point was 129 °C.

With `C[C@H]1[C@H](C)CC[C@]2(C)CC[C@]3(C)C(=CC[C@@H]4[C@@]5(C)CC[C@H](O)C(C)(C)[C@@H]5CC[C@]43C)[C@H]12`, the melting point amounted to 186 °C.

In turn, `CCCc1ccccc1N` yielded a boiling point of 226 °C.

Turning to `O=C(O)[C@H]1CC[C@H]1C(=O)O`, the melting point amounted to 131 °C.

Turning to `CC(C)C(C)C(C)C`, the boiling point is 114 °C, the log10 biodegradation half-life (days) came to 1.18, the log10 vapour pressure (mmHg) stood at 1.43 and the melting point was -109 °C.

Compound `CCCCCCCCCCCCCCCCCC(=O)OC(C)C` came in with a log10 vapour pressure (mmHg) of -4.4 and a melting point of 28 °C.

`CC1(c2ccccc2)OC(C(=O)O)=CC1=O` (configuration not stated) displayed a melting point of 176 °C.

In turn, `CCC=C(C)CCC` registered a boiling point of 121 °C.

Compound `C[C@]1(O)CC[C@H]2[C@@H]3CCC4=CC(=O)CC[C@]4(C)[C@@]3(F)[C@@H](O)C[C@@]21C` displayed a melting point of 270 °C.

Turning to `C[C@H]1/C(=C\C(=O)OCCN(C)C)CC[C@H]2[C@H]1C(=O)C[C@H]1C(C)(C)[C@@H](O)CC[C@]21C`, the melting point worked out at 142 °C.

Regarding `IC(I)=C(I)I`, the melting point is 187 °C.

Turning to `c1ccc(CSSCc2ccccc2)cc1`, the melting point was 71.5 °C.

In turn, `C=Cc1ccccc1OC` registered a boiling point of 197 °C and a melting point of 29 °C.

Take `FC(F)(F)C(F)(C(F)(F)F)C(F)(F)F`: the boiling point was determined as 0 °C.

As for `O=C(O)c1ccc2ccccc2c1`, the log10 vapour pressure (mmHg) was -5.18, the melting point was 186 °C and the ready biodegradability entry is “readily biodegradable”.

As for `COC1=CC(=O)O[C@@H](/C=C/c2ccccc2)C1`, the melting point was 106 °C.

Take `CCC(=O)CC(C)CC` (configuration not stated): the boiling point was found to be 159 °C and the ready biodegradability entry was “readily biodegradable”.

In the case of `C=CCSCC=C`, the boiling point was found to be 139 °C, the log10 vapour pressure (mmHg) turned out to be 0.965 and the melting point was -85 °C.

In the case of `Nc1ccc(Cl)c(Cl)c1Cl`, the boiling point is 292 °C, the log10 Koc (L/kg) was 2.6 and the melting point was determined as 73 °C.

`CC(C)(Oc1ccc(Cl)cc1)C(=O)O`: the melting point turned out to be 118 °C.

On to `COc1cccc(C(=O)O)c1O`, for which the melting point amounted to 151 °C.

`CCc1ccc2ccccc2n1` came in with a boiling point of 246 °C.

For the compound `Cc1cc(O)c(C2CC3CCC2(C)C3(C)C)cc1C` (configuration not stated), the melting point was 95 °C.

`CN(C)C(=S)Cl` gave a melting point of 42.5 °C.

For the compound `CC=C(CC)CC`, the boiling point is 96 °C and the log10 vapour pressure (mmHg) amounted to 1.72.

As to `COC(=O)CCCl`, the boiling point is 156 °C.

Compound `CCCCCCCCC1CCCCC1` came in with a boiling point of 264 °C, a log10 vapour pressure (mmHg) of -2.04 and a melting point of -20 °C.

`Fc1ccccc1C1=NCC(=S)N(CC(F)(F)F)c2ccc(Cl)cc21` had a melting point of 138 °C.

On to `C=CCCCCl`, for which the boiling point came to 105 °C.

`CCOC(=O)c1ccc(Br)cc1` gave a boiling point of 263 °C.

For `N#CC(c1ccccc1)c1ccccc1`, the melting point was found to be 74.3 °C and the ready biodegradability entry is “not readily biodegradable”.

Compound `CC1=NCCN1` returned a boiling point of 196 °C and a melting point of 107 °C.

`COc1ccc2c(c1)CC[C@@H]1[C@@H]2CC[C@]2(C)C(=O)[C@H](Cl)C[C@@H]12` returned a melting point of 180 °C.

Take `NCC(CC(=O)O)c1ccc(Cl)cc1` (configuration not stated): the melting point is 207 °C.

Compound `Cc1occc1C(=O)Nc1ccccc1` displayed a log10 Koc (L/kg) of 2.48, a log10 vapour pressure (mmHg) of -6.82 and a melting point of 110 °C.

`CCn1cc(C(=O)O)c(=O)c2cc(F)c(N3CCNC(C)C3)c(F)c21` (configuration not stated) yielded a melting point of 240 °C.

As to `C1CCC(CCCCCC2CCCCC2)CC1`, the boiling point amounted to 325 °C and the melting point was -13.6 °C.

`OC1CCCC1C1CCCC1` (configuration not stated): the boiling point was determined as 236 °C and the melting point was found to be 20 °C.

As to `CC=C(C(=O)OC)C(=O)OC`, the ready biodegradability result is reported as “readily biodegradable”.

`CC1c2ccccc2-c2ccccc21` came in with a melting point of 46.5 °C.

As to `Clc1cccc(-c2ccccc2)c1`, the boiling point stood at 284 °C, the log10 Henry constant (atm·m³/mol) is -3.21, the log10 Koa came to 6.82 and the log10 vapour pressure (mmHg) was -2.13. The same compound showed a melting point of 16 °C.

For the compound `C=CCCCc1ccccc1`, the boiling point worked out at 201 °C.

`CCCCCCCCCCCCCCCC(=O)OCCOC(=O)CCCCCCCCCCCCCCC`: the melting point worked out at 72 °C.

`c1ccccc1` displayed a boiling point of 80 °C, a log10 Henry constant (atm·m³/mol) of -2.26, a log10 Koa of 2.78 and a log10 Koc (L/kg) of 1.75. In addition, the log10 biodegradation half-life (days) came to 0.778, the log10 vapour pressure (mmHg) worked out at 1.98 and the ready biodegradability entry is listed as “readily biodegradable”.

On to `Cc1ccc(Cc2ccc(C)cc2)cc1`, for which the boiling point was 286 °C and the melting point was found to be 28 °C.

In turn, `O=C(O)c1ccc(C(F)(F)F)cc1` gave a melting point of 220 °C.

Turning to `CC(C)c1ccccc1C(C)C`, the boiling point was determined as 204 °C, the log10 vapour pressure (mmHg) was -0.441, the melting point is -57 °C and the ready biodegradability entry is listed as “not readily biodegradable”.

As to `Cc1c([N+](=O)[O-])c(C)c([N+](=O)[O-])c(C(C)(C)C)c1[N+](=O)[O-]`, the melting point stood at 110 °C and the ready biodegradability entry was “not readily biodegradable”.

With `C[C@@H]1CC[C@@H](C)S1`, the boiling point was found to be 142 °C and the melting point is -89 °C.

`FC(F)(F)SSC(F)(F)F` displayed a boiling point of 34.6 °C.

In the case of `Nc1cccc([N+](=O)[O-])c1`, the boiling point worked out at 306 °C, the log10 Henry constant (atm·m³/mol) was -8.1, the log10 Koc (L/kg) is 1.73 and the log10 vapour pressure (mmHg) is -4.02. Also, the melting point came to 114 °C and the ready biodegradability entry is given as “not readily biodegradable”.

Compound `CCBr` registered a boiling point of 38.5 °C, a log10 Koa of 2.11, a log10 vapour pressure (mmHg) of 2.67 and a melting point of -119 °C. For the same compound, the ready biodegradability entry is on record as “not readily biodegradable”.

`Nc1c(O)cccc1[N+](=O)[O-]` gave a melting point of 216 °C.

`FC(F)(F)c1ccc2c(c1)Nc1ccccc1S2` had a melting point of 189 °C.

In turn, `CC(C)(Oc1ccc(CCNC(=O)c2ccc(Cl)cc2)cc1)C(=O)O` came in with a melting point of 186 °C.

On to `CCCCCCCCCCCCCCCCCCN(C)C`, for which the melting point stood at 22.9 °C.

`CCN(C(C)C)C(C)C` displayed a boiling point of 126 °C.

`CCCCCCCCCCCCCCCCCC(=O)Oc1ccccc1`: the melting point is 52 °C.

As to `CNC.O=C(O)COc1ccc(Cl)cc1Cl`, the log10 vapour pressure (mmHg) is -9 and the melting point was found to be 86 °C.

The compound `CCC(C)C1(CC)C(=O)NC(=S)NC1=O` (configuration not stated) displayed a melting point of 169 °C.

As to `CCC(C(N)=O)n1nc2ccccc2n1` (configuration not stated), the melting point is 128 °C.

In the case of `c1ccc2c(c1)CCN2`, the boiling point was 229 °C.

The compound `NS(=O)(=O)c1cc(C(=O)O)ccc1Cl` yielded a melting point of 257 °C.

The same series, now with this note: fish.
In turn, `Brc1ccc(-c2ccc(Br)cc2)cc1` yielded a log10 BCF of 3.92 and a log10 biotransformation half-life (days) of 1.57.

Compound `Clc1ccc(-c2cc(Cl)c(Cl)c(Cl)c2)cc1` showed a log10 biotransformation half-life (days) of 1.69.

The compound `Nc1ccc(Cl)c(Cl)c1Cl` displayed a log10 BCF of 2 and a log10 biotransformation half-life (days) of -0.27.

Take `CCCCCCCCC1CCCCC1`: the log10 biotransformation half-life (days) amounted to 1.1.

`c1ccccc1` displayed a log10 BCF of 0.63.

As to `CC(C)c1ccccc1C(C)C`, the log10 BCF came to 2.14.

Consider `Cc1c([N+](=O)[O-])c(C)c([N+](=O)[O-])c(C(C)(C)C)c1[N+](=O)[O-]`, for which the log10 BCF is 3.61.

`Nc1cccc([N+](=O)[O-])c1`: the log10 BCF stood at 0.48 and the log10 biotransformation half-life (days) is -0.77.
